Assay results: patent publication US20140314747A1, “PREDICTING RESPONSE TO EGFR INHIBITORS” (Genentech, Inc., priority 2013, published 2014)

Experiments:
Type in all cases: cell-based, mouse
[1] = system: mesenchyme free lung explants (lung epithelium in Matrigel); test: mesenchyme-free lung explant culture, growth and branching
Experimental: (§1) Pancreas and individual lobes of the lungs were dissected from embryos harvested from timed pregnancy setups. Embryonic explants were cultured on 12 mm Transwell® with 0.4 μm polyester membrane insert (Corning, Tewsbury, Mass.) at the air-liquid interface in DME media with 10% fetal calf serum, glutamine and penicillin-streptomycin. For longer-term cultures (>3 days), media was changed daily.
For mesenchyme-free cultures, lungs were dissected and incubated in Collagenase/Dispase (1 mg/ml for each) for 10-15 minutes at room temperature. Epithelial tissue was removed by mechanical dissection, transferred to the Transwell® plates, and covered with 5-10 μl of 1:1 Matrigel:DME. After Matrigel was solidified, 400 μl media (DME/10% FCS/glutamine/pen-strep+200 ng/ml FGF7 (Life Technologies, Carlsbad, Calif.), FGF1 (Life Technologies), or EGF (Life Technologies)) was added to top and bottom wells. Erlotinib (Tarceva®, 1 μM hydrochloride salt; OSI Pharmaceuticals) or DMSO was added as indicated.
(§2) Embryonic explants were fixed in 4% paraformaldehyde, permeabilized in PBS with 2% BSA, 0.1% saponin or 0.1% Triton-X100. After washing, tissues were stained with anti-E-cadherin (Santa Cruz). Explants were mounted and imaged with a Leica SP5 laser confocal microscope. Images shown are representative of multiple independent experiments (n≧5) with littermate explants that were cultured, stained and imaged under substantially the same conditions and settings.
(§3) Homozygous germline mutations in LKB1 in mice are early embryonic lethal. […] This allele (Lkb1^MG) was “knocked-in” to the endogenous LKB1 locus to generate a genetically engineered mouse line that has been described in detail elsewhere (Lo et al., 2012, J. Cell. Biol., 199: 1117-1130). Lung and pancreas tissues from Lkb1^MG/MG embryos and wild-type littermates were dissected and grown in vitro for several days. Lung cultures were grown both as whole mount explants, and “mesenchyme-free” where most of the mesenchyme and other tissue types were stripped from the lung epithelium and the epithelium was cultured in Matrigel (Lu et al., 2005, J. Biol. Chem., 280: 4834-4841). During this time, the response of these tissues to growth factors was assessed.

pancreatic explants = test: pancreatic explant culture, cyst formation
Experimental: as §1, §2, §3

[2] = system: whole mount lung explants; test: whole mount lung explant culture, growth; settings: for size of terminal buds: addition of EGF
Experimental: as §1, §2, §3

## EGF: epidermal growth factor (Life Technologies) added to explant media (NSDSECPLSHDGYCLHDGVCMYIEALDKYACNCVVGYIGERCQYRDLKWWELR; UniProt P01133 971-1023, looked up)
[1]; Lkb1 MG/MG explants, EGF 100 ng/ml in the presence of NMPP1
  growth: substantial growth
[1]; Lkb1 wt/wt explants, EGF 100 ng/ml in the presence of NMPP1
  growth compared to no growth factor: modest increase in growth
Pancreatic explants; EGF 100 ng/ml, with Lkb1 inhibition
  development of the cystic phenotype: accelerates the development of the cystic phenotype
Pancreatic explants; EGF, in the absence of Lkb1 inhibition
  cyst formation: does not by itself promote cysts
[2]; LKB1 wt/wt lungs
  size of terminal buds: only a modest increase in size
[2]; Lkb1 MG/MG lungs
  size of terminal buds: substantial enlargement of the terminal buds

## FGF-1: fibroblast growth factor (FGF)-1 (Life Technologies)
[1]; both LKB1 wt/wt and LKB1 MG/MG, presence and absence of NMPP1
  growth of mesenchyme free lung cultures: robust growth

## C#Cc1cccc(Nc2ncnc3cc(OCCOC)c(OCCOC)cc23)c1 [erlotinib]
[1]; mesenchyme free cultures, erlotinib 1 μM, EGF + NMPP1
  effect on EGF-induced growth: inhibited
Pancreatic explants; erlotinib 1 μM, Lkb1 inhibition (NMPP1) with EGF
  effect on development of the cystic phenotype: inhibits the development of the cystic phenotype
[2]; whole mount cultures, erlotinib 1 μM, EGF + NMPP1
  effect on EGF-induced growth: inhibited
